Measured values from PMC7076710, “Synthesis, Identification, and Structure–Activity Relationship Analysis of GATA4 and NKX2-5 Protein–Protein Interaction Modulators” (Journal of Medicinal Chemistry, 2019).
Read-outs that look alike come from different tables or passages of the source. One block for each compound: values may come before it.

Legend:
Assay type in all cases: cell-based
[1] = target: T1, GATA4–NKX2-5 transcriptional synergy (Mus musculus, UniProt P42582+Q08369); assay: GATA4–NKX2-5 transcriptional synergy luciferase reporter assay (3xNKE reporter, COS-1 cells)
T1 construct: expressed in transfected cells; host or cells: COS-1

[2] = target: T2, NKX2-5 transcriptional activity (Mus musculus, UniProt P42582); assay: NKX2-5 luciferase reporter assay (3xNKE reporter, COS-1 cells); conditions: for activity at 3 µM: read-out: NKX.3µM; for activity at 10 µM: read-out: NKX.10µM
T2 construct: expressed in transfected cells; host or cells: COS-1
Description: (§1) To screen compounds for the GATA4–NKX2-5 interaction, we have developed a luciferase reporter assay based on their property to activate gene transcription synergistically through the NKX2-5 binding site on DNA.[28] In this assay, we transfected mammalian COS-1 cells with protein expression vectors for GATA4 and NKX2-5 proteins together with artificial luciferase reporter vector containing three high affinity binding sites for NKX2-5 (NKE). […] All 257 compounds were tested in two concentrations, 3 and 10 μM. Compounds either inhibited, enhanced, or had no effect on the GATA4–NKX2-5 transcriptional synergy. To investigate the selectivity of the active compounds, we tested their effects on NKX2-5 transcriptional activity by using the same luciferase reporter vector as in transcriptional synergy assay with three NKE sites (Figure 3B). Furthermore, we used GATA luciferase reporter assay to examine if compounds have an effect on GATA4 transcriptional activity. In this assay, we cotransfected the cells with a GATA4 protein expression vector and a reporter vector with tandem GATA4 binding sites (Figure 3C). Previously we have reported that compound 1 inhibited the GATA4–NKX2-5 transcriptional synergy at micromolar concentrations (IC50 = 3 μM).[29]
(§2) The plasmids expressing mouse GATA4 protein, pMT2-GATA4, and empty pMT2 were gifts from D. B. Wilson (Department of Pediatrics, St. Louis Children’s Hospital, St. Louis, MO).[44] The plasmids expressing mouse NKX2-5 protein, pMT2-NKX2-5, have been described earlier.[28] The luciferase reporter plasmid used in GATA4–NKX2-5 transcriptional synergy assay and NKX transcriptional assay, pGL3-3xHA, contains three high affinity binding sites for NKX2-5.[28] The luciferase reporter plasmid used in GATA transcriptional assay, NP-112, contains tandem GATA-sites and minimal promoter of rat brain natriuretic peptide (BNP) gene.[45] The pGL3-BNP luciferase reporter containing −534/+4 bp rat BNP proximal promoter described previously was used in hypertrophy assay.[46]
(§3) The primary screening assay of compounds’ effect on GATA4–NKX2-5 transcriptional synergy and COS-1 cell culturing has been described earlier.[33] […] (Kinnunen et al., unpublished observation). Briefly, COS-1 cells were seeded at 14 000 cells/well in Isoplate-96 microplates (PerkinElmer, Turku, Finland) and grown overnight. The cells were transfected with the luciferase reporter plasmid pGL3-3xHA 100 ng/well and equal amounts of expression plasmids pMT2-GATA4 and pMT2-NKX2-5 total 50 ng/well. To verify the synergistic effect, the cells were transfected with pMT2-GATA4 or pMT2-NKX2-5 25 ng/well, and the total DNA concentration was adjusted to 50 ng/well with empty pMT2 plasmid. In NKX2-5 and GATA4 luciferase reporter assays, the cells were transfected with reporter plasmid pGL3-3xHA or NP-112 (100 ng/well) and expression plasmid pMT2-NKX2-5 or pMT2-GATA4 (25 ng/well). The ratio of DNA/transfection reagent (Fugene 6, Promega) was 1:3 in all assays. The transfections were performed in serum and antibiotics free media for 6 h. The cells were treated with compounds or vehicle (0.1% DMSO) for 24 h, and the luminescence was measured using neolite Reporter Gene Assay System (PerkinElmer, Turku, Finland) and Victor2 plate reader (PerkinElmer, Turku, Finland).
(§4) Raw luciferase data were analyzed in Excel, and clear outliers were removed from triplicates by using the Grubb’s test. Data analysis was performed using R.[49] The luciferase data were first normalized on the basis of the combined mean value of controls. For data visualization and creation of figures, the following R packages were used: ggplot2, cowplot, RColorBrewer, and pheatmap. The heatmaps of the toxicity data were produced with GraphPad Prism 7.00 (GraphPad Software, La Jolla, CA). Statistical significance of luciferase reporter assay data was evaluated by randomized block analysis of variance followed by Dunnett’s post hoc test. […]

[3] = target: T3, GATA4 transcriptional activity (Mus musculus, UniProt Q08369); assay: GATA4 luciferase reporter assay (tandem GATA-site reporter, COS-1 cells)
T3 construct: expressed in transfected cells; host or cells: COS-1
Description: as §1, §2, §3, §4

[4] = 3 µM compound, GATA4–NKX2-5 transcriptional synergy reporter, COS-1 cells
[5] = 10 µM compound, GATA4–NKX2-5 transcriptional synergy reporter, COS-1 cells
[6] = 3 µM compound, NKX2-5 luciferase reporter, COS-1 cells
[7] = 10 µM compound, NKX2-5 luciferase reporter, COS-1 cells
[8] = 3 µM compound, GATA4 luciferase reporter, COS-1 cells
[9] = 10 µM compound, GATA4 luciferase reporter, COS-1 cells
[10] = COS-1, compound at 3 µM, luciferase reporter activity, % of control
[11] = COS-1, compound 3 µM, luciferase reporter activity, spread in separate STDEV column
[12] = COS-1, compound 10 µM, luciferase reporter activity, spread in separate STDEV column
[13] = COS-1, 3 µM, luciferase reporter activity, % of control
[14] = COS-1, GATA4-NKX2-5 transcriptional synergy luciferase reporter assay, compound at 3 µM
[15] = COS-1, GATA4-NKX2-5 transcriptional synergy luciferase reporter assay, compound at 10 µM
[16] = COS-1, NKX2-5 luciferase reporter assay, compound at 3 µM
[17] = COS-1, NKX2-5 luciferase reporter assay, compound at 10 µM
[18] = COS-1, GATA4 luciferase reporter assay, compound at 10 µM
[19] = COS-1, 10 µM, luciferase reporter activity, % of control

T2 sequence (P42582 whole entry): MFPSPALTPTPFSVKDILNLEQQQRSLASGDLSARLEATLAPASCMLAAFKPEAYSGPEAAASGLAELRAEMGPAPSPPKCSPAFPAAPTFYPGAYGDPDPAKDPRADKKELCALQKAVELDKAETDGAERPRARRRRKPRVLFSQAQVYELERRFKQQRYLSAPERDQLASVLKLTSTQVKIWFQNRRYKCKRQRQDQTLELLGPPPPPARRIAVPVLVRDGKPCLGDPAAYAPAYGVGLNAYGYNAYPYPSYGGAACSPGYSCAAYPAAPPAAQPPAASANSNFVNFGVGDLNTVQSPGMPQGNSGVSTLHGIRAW
T3 sequence (Q08369 whole entry): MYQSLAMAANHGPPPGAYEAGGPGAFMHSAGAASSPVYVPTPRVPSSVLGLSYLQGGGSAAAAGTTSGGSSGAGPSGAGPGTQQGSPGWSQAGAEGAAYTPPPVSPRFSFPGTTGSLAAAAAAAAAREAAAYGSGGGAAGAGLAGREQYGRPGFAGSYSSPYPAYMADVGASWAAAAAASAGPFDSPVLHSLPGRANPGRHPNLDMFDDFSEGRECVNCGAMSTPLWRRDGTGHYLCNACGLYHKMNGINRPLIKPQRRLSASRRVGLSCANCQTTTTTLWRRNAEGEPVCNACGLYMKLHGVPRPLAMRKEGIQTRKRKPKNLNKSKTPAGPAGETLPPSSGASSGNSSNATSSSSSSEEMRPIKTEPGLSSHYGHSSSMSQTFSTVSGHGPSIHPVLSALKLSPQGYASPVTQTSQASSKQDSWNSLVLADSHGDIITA
T1 sequence (Q08369 whole entry): as above
T1 sequence (P42582 whole entry): as the sequence (P42582 whole entry) above

activity at 3 µM [1, 13]: 83.4%
activity at 3 µM [2, 13]: 106%
activity at 3 µM [3, 13]: 127%
Structure (SMILES): CCN(CC)c1ccc(NC(=O)c2c(C)nc3ccccn23)cc1 [Compound 47ab]

activity at 3 µM [1, 11]: 118%
activity at 10 µM [1, 12]: 104%
activity at 3 µM [2, 11]: 114%
activity at 10 µM [2, 12]: 106%
activity at 3 µM [3, 11]: 134%
activity at 10 µM [3, 12]: 143%
Structure (SMILES): CCN(CC)c1ccc(NC(=O)c2cc(C)oc2-c2cc(C)on2)cc1 [Compound 47h]

activity at 3 µM [1, 11]: 105%
effect on NKX2-5 transcriptional activity (in words) [2]: did not affect
activity at 3 µM [3, 11]: 119%
Structure (SMILES): CCN(CC)c1ccc(NC(=O)c2cc(C)sc2-c2cc(C)on2)cc1 [Compound 47l]

activity at 3 µM [1, 13]: 104%
activity at 10 µM [1, 19]: 90.6%
activity at 3 µM [2, 13]: 103%
activity at 10 µM [2, 19]: 95.1%
activity at 3 µM [3, 13]: 96.5%
activity at 10 µM [3, 19]: 110%
Structure (SMILES): Cc1onc(-c2ccccc2)c1COCc1ccc2ccccc2c1 [SI48]

activity at 3 µM [1, 11]: 76.3%
activity at 10 µM [1, 12]: 85.4%
activity at 3 µM [2, 11]: 84%
activity at 10 µM [2, 12]: 78.3%
activity at 3 µM [3, 11]: 74.4%
activity at 10 µM [3, 12]: 72.4%
Structure (SMILES): COc1ccc(-c2cc(NCc3ccc(N(C)C)cc3)n[nH]2)cc1 [SI92]

activity at 3 µM [1, 11]: 69%
activity at 10 µM [1, 12]: 72.5%
activity at 3 µM [2, 11]: 95.3%
activity at 10 µM [2, 12]: 79%
activity at 3 µM [3, 11]: 96.8%
activity at 10 µM [3, 12]: 85%
Structure (SMILES): CN(C)c1ccc(CNc2cc(-c3ccccc3)nn2-c2ccccc2)cc1 [SI94]

activity at 3 µM [1, 13]: 69.3%
activity at 10 µM [1, 19]: 109%
activity at 3 µM [2, 13]: 99.3%
activity at 10 µM [2, 19]: 103%
activity at 3 µM [3, 13]: 109%
activity at 10 µM [3, 19]: 97.6%
Structure (SMILES): Cc1onc(-c2ccccc2)c1N=Cc1ccc(N(C)C)cc1 [SI108]

activity at 3 µM [1, 14]: 93.2%
activity at 10 µM [1, 15]: 72.3%
activity at 3 µM [2, 16]: 106%
activity at 10 µM [2, 17]: 90.4%
activity at 3 µM ([3]; COS-1, GATA4 luciferase reporter assay, compound at 3 µM): 105%
activity at 10 µM [3, 18]: 80.9%
Structure (SMILES): COc1cc(C(=O)Nc2cc(-c3ccncc3)n[nH]2)ccc1C [SI123]

Further lines, the compound ahead of its results:

Structure (SMILES): CCc1noc(C)c1C(=O)Nc1ccc(N(CC)CC)cc1 [Compound 39b]
activity at 3 µM [1, 4]: 97.5%
activity at 10 µM [1, 5]: 104%
activity at 3 µM [2, 6]: 124%
activity at 10 µM [2, 7]: 164%
activity at 3 µM [3, 8]: 120%
activity at 10 µM [3, 9]: 143%

Structure (SMILES): CCN(CC)c1ccc(NC(=O)c2c(-c3ccccc3Cl)noc2C)cc1 [Compound 39k]
activity at 3 µM [1, 10]: 107%
effect on NKX2-5 transcriptional activity (in words) [2]: did not affect
activity at 3 µM [2, 10]: 157%
effect on GATA4 transcriptional activity (in words) ([3]; 10 µM): slightly increased
activity at 3 µM [3, 10]: 86.1%
activity at 10 µM ([3]; COS-1, compound at 10 µM, luciferase reporter activity, % of control): 112%

Structure (SMILES): CCN(CC)c1ccc(NC(=O)c2c(-c3ccoc3)noc2C)cc1 [Compound 39n]
activity at 3 µM [1, 4]: 119%
activity at 10 µM [1, 5]: 105%
activity at 3 µM [2, 6]: 122%
activity at 10 µM [2, 7]: 106%
activity at 3 µM [3, 8]: 108%

Structure (SMILES): CCN(CC)c1ccc(NC(=O)c2c(-c3cc(C)on3)noc2C)cc1 [Compound 39o]
activity at 3 µM [1, 11]: 97.1%
activity at 10 µM [1, 12]: 102%
activity at 3 µM [2, 11]: 101%
activity at 3 µM [3, 11]: 89.2%
activity at 10 µM [3, 12]: 101%

Structure (SMILES): CCN(CC)c1ccc(NC(=O)c2c(-c3ccc(C)s3)noc2C)cc1 [Compound 39p]
activity at 10 µM [1, 12]: 102%
activity at 3 µM [2, 11]: 83.8%
activity at 3 µM [3, 11]: 85.9%

Structure (SMILES): CC(C)c1ccc(NC(=O)c2noc3c2CCc2sccc2-3)cc1 [Compound 66]
activity at 3 µM [1, 14]: 132%
activity at 10 µM [1, 15]: 128%
activity at 3 µM [2, 16]: 122%
activity at 10 µM [2, 17]: 106%
activity at 10 µM [3, 18]: 124%

Structure (SMILES): CCN(c1ccc(NC(=O)c2c(C)noc2-c2cc(C)on2)cc1)C(C)C [Compound 74]
activity at 10 µM [1, 5]: 96.6%
activity at 3 µM [2, 6]: 85.2%
activity at 10 µM [2, 7]: 88.8%
activity at 3 µM [3, 8]: 103%
activity at 10 µM [3, 9]: 125%

Structure (SMILES): CN(C)c1ccc(/N=C/c2c[nH]nc2-c2ccc(F)cc2)cc1 [Compound 75]
activity at 3 µM [1, 13]: 110%
activity at 10 µM [1, 19]: 100%
activity at 3 µM [2, 13]: 108%
activity at 10 µM [2, 19]: 145%
activity at 3 µM [3, 13]: 107%
activity at 10 µM [3, 19]: 122%

Structure (SMILES): Cc1onc(-c2ccccc2)c1C(=O)Nc1ccc(C(=O)OCCC#N)cc1 [Compound 76]
activity at 3 µM [1, 11]: 98.7%
activity at 10 µM [1, 12]: 104%
activity at 3 µM [2, 11]: 132%
activity at 10 µM [2, 12]: 126%
activity at 3 µM [3, 11]: 97.1%
activity at 10 µM [3, 12]: 73.4%

Structure (SMILES): C#CC[N+](CC)(CC)c1ccc(NC(=O)c2c(-c3ccccc3)noc2C)cc1 [Compound 77]
activity at 3 µM [1, 13]: 84%
activity at 10 µM [1, 19]: 101%
activity at 3 µM [2, 13]: 97.9%
activity at 10 µM [2, 19]: 117%
activity at 3 µM [3, 13]: 101%
activity at 10 µM [3, 19]: 95.3%

Structure (SMILES): CCN(CC)c1ccc(-n2c(=O)c3c(C)onc3c3ccccc32)cc1 [Compound 78]
effect on GATA4–NKX2-5 transcriptional synergy (in words) [1]: no effect
activity at 3 µM [1, 4]: 84.1%
activity at 10 µM [1, 5]: 100%
activity at 3 µM [2, 6]: 105%
activity at 10 µM [2, 7]: 112%
activity at 3 µM [3, 8]: 101%
activity at 10 µM [3, 9]: 113%
